Measured values reported in ChEMBL document CHEMBL3627659, “Development of novel dipeptide-like rhodesain inhibitors containing the 3-bromoisoxazoline warhead in a constrained conformation” (Bioorg Med Chem, 2015).
Activity calls are given as the source filed them. No cut-off for these calls is given here.

Columns and labels:
Rhodesain = Rhodesain (Trypanosoma brucei rhodesiense, UniProt Q95PM0); assay: Inhibition of Trypanosoma brucei rhodesiense rhodesain using Cbz-Phe-Arg-7-amino-4-methylcoumarin assessed as substrate hydrolysis measured by fluorescence analysis for 10 mins
Rhodesain, sequence (Q95PM0 whole entry): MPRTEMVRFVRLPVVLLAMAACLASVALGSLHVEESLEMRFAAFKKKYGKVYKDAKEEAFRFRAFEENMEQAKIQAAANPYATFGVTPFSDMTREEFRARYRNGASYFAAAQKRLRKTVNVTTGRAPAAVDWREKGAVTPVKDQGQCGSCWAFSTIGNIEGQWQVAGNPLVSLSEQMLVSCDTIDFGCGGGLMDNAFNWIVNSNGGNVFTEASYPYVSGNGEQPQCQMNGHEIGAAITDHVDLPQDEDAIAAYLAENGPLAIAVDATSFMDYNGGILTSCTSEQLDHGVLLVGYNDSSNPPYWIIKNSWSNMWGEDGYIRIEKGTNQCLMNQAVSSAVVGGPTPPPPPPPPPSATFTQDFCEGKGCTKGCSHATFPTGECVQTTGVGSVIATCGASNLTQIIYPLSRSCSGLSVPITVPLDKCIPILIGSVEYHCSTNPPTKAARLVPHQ

[1] = target: Rhodesain (Trypanosoma brucei rhodesiense) (UniProt Q95PM0); assay: Inhibition of Trypanosoma brucei rhodesiense rhodesain using Cbz-Phe-Arg-7-amino-4-methylcoumarin assessed as substrate hydrolysis at 100 uM measured by fluorescence analysis for 10 mins
Rhodesain (Trypanosoma brucei rhodesiense), sequence (Q95PM0 1-450): as the sequence (Q95PM0 whole entry) above

[2] = target: Cathepsin B (Homo sapiens) (UniProt P07858); assay: Inhibition of human cathepsin B using Cbz-Phe-Arg-AMC at 100 uM measured by fluorescence spectrophotometry
[3] = target: Procathepsin L (Homo sapiens) (UniProt P07711); assay: Inhibition of human cathepsin L using Cbz-Phe-Arg-AMC at 100 uM measured by fluorescence spectrophotometry
Procathepsin L (Homo sapiens), sequence (P07711 114-333 limits assumed): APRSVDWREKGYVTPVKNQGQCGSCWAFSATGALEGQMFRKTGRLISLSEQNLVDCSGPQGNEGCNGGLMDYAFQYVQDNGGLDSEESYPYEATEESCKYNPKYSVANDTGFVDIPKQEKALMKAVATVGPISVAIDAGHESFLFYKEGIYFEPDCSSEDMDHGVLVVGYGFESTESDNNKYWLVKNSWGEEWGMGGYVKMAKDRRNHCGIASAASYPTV

[4] = system: Trypanosoma brucei brucei; assay: Antitrypanosomal activity against Trypanosoma brucei brucei TC 221 after 72 hrs by Alamar Blue assay; format: functional, organism-based; settings: TC 221, 72 h
[5] = system: Trypanosoma brucei brucei; assay: Antitrypanosomal activity against Trypanosoma brucei brucei TC 221 after 48 hrs by Alamar Blue assay; format: functional, organism-based; settings: TC 221, 48 h
[6] = Cytotoxicity against mouse J774.1 cells incubated for 24 to 48 hrs by Alamar Blue assay; format: cell-based

SMILES | Ki (Rhodesain) | inhibition [1] | inhibition [2] | inhibition [3] | IC50 [4] | IC50 [5] | IC50 [6]
C=CCOC(=O)N[C@@H](Cc1ccccc1)C(=O)N1C[C@@H]2C(Br)=NO[C@@H]2C1 | 15.1 µM | > 40% | inactive | inactive | – | – | –
CCCOC(=O)N[C@@H](CC(C)C)C(=O)N1CC2ON=C(Br)C2C1 (mixture of isomers) | – | 11.3% | inactive | inactive | – | – | –
O=C(N[C@@H](CCc1ccccc1)C(=O)N1C[C@@H]2C(Br)=NO[C@@H]2C1)OCC1CC1 | – | 15.7% | inactive | – | – | – | –
CCCOC(=O)N[C@@H](Cc1ccccc1)C(=O)N1CC2ON=C(Br)C2C1 (mixture of isomers) | – | 13.1% | inactive | inactive | – | – | –
CC(C)C[C@H](NC(=O)OC(C)(C)C)C(=O)N1CC2ON=C(Br)C2C1 (mixture of isomers) | 13.6 µM | > 40% | inactive | inactive | – | – | –
C=CCOC(=O)N[C@@H](CC(C)C)C(=O)N1C[C@@H]2C(Br)=NO[C@@H]2C1 | 8.52 µM | > 40% | inactive | inactive | – | – | –
C=CCOC(=O)N[C@@H](CC(C)C)C(=O)N1CC2ON=C(Br)C2C1 (mixture of isomers) | 8.36 µM | > 40% | inactive | inactive | – | – | –
O=C(N[C@@H](CCc1ccccc1)C(=O)N1CC2ON=C(Br)C2C1)OCc1ccccc1 (mixture of isomers) | – | inactive | inactive | – | – | – | –
O=C(N[C@@H](Cc1ccccc1)C(=O)N1CC2ON=C(Br)C2C1)OCc1ccccc1 (mixture of isomers) | 8.41 µM | > 40% | inactive | inactive | 18.2 µM | 16.4 µM | > 100 µM
CCCOC(=O)N[C@@H](CCc1ccccc1)C(=O)N1CC2ON=C(Br)C2C1 (mixture of isomers) | – | 15.3% | inactive | – | – | – | –
C=CCOC(=O)N[C@@H](CC(C)C)C(=O)N1C[C@@H]2ON=C(Br)[C@@H]2C1 | 9.05 µM | > 40% | inactive | inactive | – | – | –
C=CCOC(=O)N[C@@H](CCc1ccccc1)C(=O)N1CC2ON=C(Br)C2C1 (mixture of isomers) | 2.62 µM | > 40% | inactive | – | – | – | –
C=CCOC(=O)N[C@@H](CCc1ccccc1)C(=O)N1C[C@@H]2ON=C(Br)[C@@H]2C1 | 3.35 µM | > 40% | inactive | – | – | – | –
C=CCOC(=O)N[C@@H](CCc1ccccc1)C(=O)N1C[C@@H]2C(Br)=NO[C@@H]2C1 | 2.73 µM | > 40% | inactive | – | – | – | –
C=CCOC(=O)N[C@@H](Cc1ccccc1)C(=O)N1CC2ON=C(Br)C2C1 (mixture of isomers) | 16.8 µM | > 40% | inactive | inactive | – | – | –
CC(C)(C)OC(=O)N[C@@H](CCc1ccccc1)C(=O)N1CC2ON=C(Br)C2C1 (mixture of isomers) | – | 5.8% | inactive | – | – | – | –
CC(C)(C)OC(=O)N[C@@H](Cc1ccccc1)C(=O)N1CC2ON=C(Br)C2C1 (mixture of isomers) | 17.7 µM | > 40% | inactive | inactive | – | – | –
C=CCOC(=O)N[C@@H](Cc1ccccc1)C(=O)N1C[C@@H]2ON=C(Br)[C@@H]2C1 | 16.6 µM | > 40% | inactive | inactive | – | – | –
O=C(N[C@@H](CCc1ccccc1)C(=O)N1C[C@@H]2C(Br)=NO[C@@H]2C1)OCc1ccc([N+](=O)[O-])cc1 | 6.81 µM | > 40% | inactive | – | – | – | –
CC(C)C[C@H](NC(=O)OCc1ccccc1)C(=O)N1CC2ON=C(Br)C2C1 (mixture of isomers) | – | 8.3% | inactive | – | – | – | –
